Data on 2 compounds can be found in patent publication EP1944295A1, “Non-racemic mixtures of (R)-N-piperidinyl-5-(4-chlorophenyl)1-(2,4-dichlorophenyl)-4,5-dihydro-1H-pyrazole-3-carboxamide and (S)-N-piperidinyl-5-(4-chlorophenyl)-1-(2,4-dichlorophenyl)-4,5-dihydro-1H-pyrazole-3-carboxamide” (Laboratorios del Dr. Esteve S.A., priority 2007, dated 2008).

The target in one series is T1, rat CB1 receptors (Rattus norvegicus, UniProt P20272).
T1 construct: cerebella from male Wistar rats (250-300g) were carefully dissected on ice and homogenates were prepared; from tissue; host or cells: rat cerebellum membranes (male Wistar rats)
The series is described as follows: Binding affinity to CB1 receptor, competitive binding with [3H]-CP 55,940 in rat cerebellum membranes. The protocol: Binding affinity to CB1 receptor was evaluated according to the method of Govaerts et al (2004) with the following modifications. Briefly, cerebella from male Wistar rats (250-300g) were carefully dissected on ice and homogenates were prepared in cold 50 mM Tris-HCl, 5 mM MgCl2, 1 mM EDTA, 0.25 M sucrose, pH 7.4 with a Potter-Heljheim homogeniser and the suspension was centrifuged at 1,000 x g for 5 minutes. The supernatants were collected and centrifuged at 50,000 x g for 15 min. The resulting pellets were resuspended in Tris-HCl buffer without sucrose, homogenized and incubated for 15 min at 37°C in an orbital shaker bath and centrifuged again at 50,000 x g for 15 min. Pellets were weighed, resuspended in Tris-HCl buffer without sucrose, homogenized with an Ultraturrax homogeniser at 13,500 rpm for 3 x 5 seconds and aliquoted in 0.9 ml volumes in Eppendorf tubes. Aliquots were centrifuged at 20,800 x g for 5 minutes, supernatants discarded and pellets were frozen at -80°C until use. Total protein concentration was determined using a Bio-Rad commercial assay base on the Lowry method. Competitive binding experiments were performed in presence of 1 nM [^3H]-CP 55,940 in siliconized glass tubes containing 100 µg protein/tube resuspended in 1 ml final volume of 50 mM Tris-HCl, 5 mM MgCl2, 1 mM EDTA, 0.5% (w/v) bovine serum albumin, pH 7.4. Competitors were present at various concentrations and the non-specific binding was determined in the presence of 10 µM HU-210. After 1 hour incubation at 30°C, the suspension was rapidly filtered through 0.5% PEI pre-treated GF/B fiber filters on a 96-well harvester and washed 3 times with 3ml ice-cold binding buffer without bovine serum albumin. Radioactivity on filters was measured with Wallac Winspectral 1414 counter by liquid scintillation in 6 ml Ecoscint H (National Diagnostics, U.K.). Assays were made in triplicate.
Binding data were analyzed by non-linear regression with the software GraphPad Prism Version 3.03.

A short description of series [1]: Feeding study: body weight of obese rats with access to highly palatable cafeteria diet. It counts as in vivo, female Wistar rats. As to conditions: after 28 days of treatment, dietary-induced obese rats. On the procedure: (§1) The experiment was performed on female Wistar rats (originally in the weight range 250-300 g). The rats were housed in pairs in polypropylene cages with solid floors and sawdust bedding at a temperature of 21±4°C and 55±20% humidity. Animals were maintained on a reverse phase light-dark cycle (lights off for 8 h from 09.30-17.30 h) during which time the room was illuminated by red light. Animals had free access to powdered high fat diet (VRF1 plus 20% lard), ground chocolate, ground peanuts and tap water at all times. The three different diets were contained in separate glass feeding jars with aluminum lids with a 3-4 cm hole cut in it to allow access to the food. Animals were housed in pairs for twelve weeks for the induction of obesity. Animals were then housed singly in polypropylene cages with wire grid floors to enable the food intake of each rat to be recorded. Polypropylene trays with cage pads were placed beneath each cage to detect any food spillage. Animals were accustomed to these new conditions (individual housing and the wire-grid floor cages) for at least 14 days before the start of the baseline readings.
(§2) Approximately a week before the start of the study, animals were weighed (to the nearest 0.1 g using an electronic top-pan balance) and allocated into […], each containing 9-10 animals. Following a 7 day baseline run-in period, during which the animals were dosed by the appropriate route (eg orally) once a day with vehicle (0.5% hydroxy-propyl-methylcellulose [HPMC]; 1 ml/kg) or the test drug, ie COMPOUND A (10 and 30 mg/kg po) and COMPOUND B (10 and 30 mg/kg po) once daily for 28 days.
Food intake and body weight were measured once daily. Variations in body weight and energy levels of the different types of food were accounted for by expressing the food intake results in terms of kJ/kg rat weight.
Statistical comparisons between the body weights and daily food intakes of the different treatment groups have been made by analysis of covariance followed by Dunnett's test to compare each treatment group with the vehicle-treated controls. For the body weight data (body weights each day), the weights of the animals on Day 1 (ie immediately before the first drug treatment) were used as the covariate. Thus, means were adjusted for differences in body weight between the groups on Day 1 and standard errors of the mean (SEM) were calculated from the residuals of the statistical model. All mean body weight values on Day 1 are identical (and SEM are therefore zero) because the analysis of covariance adjusts them all to equal the 'grand mean' of the values of this day.

Series [2] is described as follows: Plasma glycerol and triacylglycerol assay. As to conditions: obese rats, vs vehicle; for reduction of plasma glycerol levels / reduction of plasma triacylglycerol concentrations: 30 mg/kg po once daily for 28 days. It counts as in vivo, female Wistar rats. On the procedure: as §1, §2
Terminal blood samples via cardiac puncture were taken from the animals immediately after death into Sarstedt 4.5 ml lithium-heparin tubes (Cat No. 32.331). Tubes were then centrifuged at 1,500 g for 5 minutes at 4°C and the plasma removed and immediately frozen on dry ice (as 3 aliquots per sample in sealed Eppendorf tubes). Plasma samples were stored at -75°C until required for analysis. All determinations were performed on plasma samples that had been thawed only once.
Plasma triacylglycerol was determined by modification of a discrete assay kit (Sigma Triglyceride determination kit, Cat No. TR0100) to a 96-well format. The kit actually determines liberated glycerol following enzymic hydrolysis of triacylglycerol to free fatty acids and glycerol (1 mole glycerol per mole of triacylglycerol). For this reason, correction for the glycerol concentration originally present in the plasma is required. Plasma samples were, therefore, assayed in the absence (free plasma glycerol) or presence (total triacylglycerol) of lipoprotein lipase. Subtraction of free glycerol from total triacylglycerol concentration then derives the true triacylglycerol concentration.
A 2.5 mg/ml triolein equivalent glycerol standard was obtained from Sigma. The supplied Sigma mM conversion factor for this batch was 1.13 (ie 2.83 mM glycerol). A 10 mg/ml glycerol stock solution was prepared in saline and then diluted in saline to create a series of standard concentrations from 0.218 to 4.34 mM. Standards and plasma samples (undiluted) were pipetted into the 96-well plates as 10 µl additions in duplicate. Assay plates and reagents were preheated at 37°C and the reaction started by adding 200 µl of either the glycerol or total triacylglycerol reagent (reconstituted as per manufacturer's protocol) followed by incubation at 37°C for 5 minutes after which optical density at 540 nm was determined using a Molecular Devices VERSAmax tunable microplate reader. Optical density readings were then transferred to GraphPad Prism and unknown values extrapolated from a linear regression fit to the standard curve. The assay was linear up to the highest glycerol standard employed (4.34 mM). Subtraction of the glycerol concentration in the plasma samples from the total triacylglycerol concentration derived the true triacylglycerol concentration.

The target of another series is Herg channel (Homo sapiens, UniProt Q12809). The series can be described thus: Herg channel affinity (statement only, no method). It counts as binding. As to conditions: low risk of prolongation of the QT-interval expected.
A short description of series [3]: Determination of carcass fat content (Soxhlet). It counts as in vivo, female Wistar rats. As to conditions: obese rats, g per rat. The protocol: as §1, with “Polypropylene trays with cage pads were placed beneath each cage to detect any food spillage.” left out, “readings. […]” for “readings.”
Percentage fat in the freeze-dried sample was calculated as follows: % fat = [100×(final cup weight-initial cup weight)]/sample weight [formula]
Percentage fat in the original sample was calculated using the % water as follows: % fat in original sample = % fat × [(100-% water)/100] […]

The next series in a line: Plasma leptin assay. It counts as in vivo, female Wistar rats. As to conditions: obese rats. The protocol:
as §1, with “Polypropylene trays with cage pads were placed beneath each cage to detect any food spillage.” left out, “readings. […]” for “readings.”
Plasma leptin concentration was determined using Assay Designs rat leptin enzyme immunometric assay kits (Cat No. 900-015) according to the manufacturer's regular protocol. […] Optical density at 450 nm was determined using a Molecular Devices VERSAmax tunable microplate reader and readings transferred to GraphPad Prism. […]

The nature of another series: Plasma NEFA assay. It counts as in vivo, female Wistar rats. As to conditions: 30 mg/kg po once daily for 28 days, obese rats. On the procedure:
as §1, with “Animals were housed in pairs for twelve weeks for the induction of obesity.” left out, “Polypropylene trays with cage pads were placed beneath each cage to detect any food spillage.” left out, “readings. […]” for “readings.”
Non-esterified (or free) fatty acids (NEFA) were determined by modification of a commercial clinical analyser assay kit (Wako NEFA C ACS-ACOD method) to a 96-well format. […] After exactly 10 minutes, 150 µl of reagent B was added and the plate incubated for a further 10 minutes after which optical density at 540 nm was determined using a Molecular Devices VERSAmax tunable microplate reader. […]

The mark [4] stands for this setting: 1 nM [3H]-CP 55,940, read-out: IC50.
Setting [5] is: 10 mg/kg po once daily for 28 days.
Setting [6] is: 30 mg/kg po once daily for 28 days.

Where two headings read alike, the source gives them in different places.

T1 sequence (P20272 whole entry): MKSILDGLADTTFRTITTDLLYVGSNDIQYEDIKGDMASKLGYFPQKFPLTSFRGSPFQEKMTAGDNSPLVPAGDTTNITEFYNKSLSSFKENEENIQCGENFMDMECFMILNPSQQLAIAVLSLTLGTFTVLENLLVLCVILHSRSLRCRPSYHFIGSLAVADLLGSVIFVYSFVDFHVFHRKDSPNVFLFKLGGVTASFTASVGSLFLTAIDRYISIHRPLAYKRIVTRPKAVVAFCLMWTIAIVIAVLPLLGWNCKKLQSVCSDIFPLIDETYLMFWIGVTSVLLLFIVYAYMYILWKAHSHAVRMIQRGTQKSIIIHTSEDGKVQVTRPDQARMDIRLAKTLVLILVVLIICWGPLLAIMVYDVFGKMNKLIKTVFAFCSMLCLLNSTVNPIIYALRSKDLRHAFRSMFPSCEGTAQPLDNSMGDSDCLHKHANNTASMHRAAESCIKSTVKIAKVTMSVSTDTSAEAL
Sequence of Herg channel (Q12809 whole entry): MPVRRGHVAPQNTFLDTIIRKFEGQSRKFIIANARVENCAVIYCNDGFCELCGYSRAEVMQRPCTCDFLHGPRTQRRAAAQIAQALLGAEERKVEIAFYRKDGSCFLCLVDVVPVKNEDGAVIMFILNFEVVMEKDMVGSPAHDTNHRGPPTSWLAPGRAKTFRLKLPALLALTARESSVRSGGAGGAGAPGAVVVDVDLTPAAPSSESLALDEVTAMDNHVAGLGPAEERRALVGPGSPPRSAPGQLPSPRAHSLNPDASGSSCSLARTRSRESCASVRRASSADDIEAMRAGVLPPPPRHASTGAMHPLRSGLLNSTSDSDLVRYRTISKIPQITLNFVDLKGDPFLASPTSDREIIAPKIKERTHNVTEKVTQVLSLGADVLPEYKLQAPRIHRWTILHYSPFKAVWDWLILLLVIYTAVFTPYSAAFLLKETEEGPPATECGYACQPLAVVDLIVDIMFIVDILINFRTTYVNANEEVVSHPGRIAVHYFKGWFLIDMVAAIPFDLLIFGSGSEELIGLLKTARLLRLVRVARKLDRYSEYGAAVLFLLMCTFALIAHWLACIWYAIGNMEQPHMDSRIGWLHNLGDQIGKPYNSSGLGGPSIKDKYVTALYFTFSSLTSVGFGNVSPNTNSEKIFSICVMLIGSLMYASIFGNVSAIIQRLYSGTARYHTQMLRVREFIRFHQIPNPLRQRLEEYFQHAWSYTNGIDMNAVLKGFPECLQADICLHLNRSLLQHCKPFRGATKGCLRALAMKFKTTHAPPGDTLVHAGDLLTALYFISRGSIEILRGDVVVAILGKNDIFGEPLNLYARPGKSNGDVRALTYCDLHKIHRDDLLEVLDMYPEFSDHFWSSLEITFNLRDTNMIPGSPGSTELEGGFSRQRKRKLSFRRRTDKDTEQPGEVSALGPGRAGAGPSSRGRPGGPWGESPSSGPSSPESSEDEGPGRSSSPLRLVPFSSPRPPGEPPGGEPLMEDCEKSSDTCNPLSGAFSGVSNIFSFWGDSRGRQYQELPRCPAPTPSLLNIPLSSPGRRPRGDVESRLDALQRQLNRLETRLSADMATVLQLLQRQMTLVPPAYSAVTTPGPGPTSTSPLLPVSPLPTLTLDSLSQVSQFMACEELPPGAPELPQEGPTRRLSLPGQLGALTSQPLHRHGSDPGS

Consider `O=C(NN1CCCCC1)C1=NN(c2ccc(Cl)cc2Cl)[C@@H](c2ccc(Cl)cc2)C1` [Compound A, (R)-N-piperidinyl-5-(4-chlorophenyl)-1-(2,4-dichlorophenyl)-4,5-dihydro-1H-pyrazole-3-carboxamide], for which the IC50 on rat CB1 receptors (setting [4]) was 16.1 nM; on rat CB1 receptors (1 nM [3H]-CP 55,940, read-out: pIC50 (converted)) it was 21.9 nM. In addition, the “% reduction of body weight compared to the control group on Day 29” value came to 12.0% in series [1] (10 mg/kg po once daily) and 19.0% in series [1] (30 mg/kg po once daily). Also, the “effect on plasma glycerol levels” value in series [2] (setting [5]) is “no significant effect”. In series [2] (setting [5]), the “effect on plasma triacylglycerol concentrations” value is “no significant effect”. The “reduction of plasma glycerol levels” value in series [2] came out at 33.6%. The “reduction of plasma triacylglycerol concentrations” value in series [2] was determined as 42%. At Herg channel, the Herg channel affinity entry is recorded as “relatively weak”.
As to `O=C(NN1CCCCC1)C1=NN(c2ccc(Cl)cc2Cl)[C@H](c2ccc(Cl)cc2)C1` [Compound B, (S)-N-piperidinyl-5-(4-chlorophenyl)-1-(2,4-dichlorophenyl)-4,5-dihydro-1H-pyrazole-3-carboxamide], the IC50 at rat CB1 receptors (setting [4]) amounted to 813 nM. Besides, the figures for the “% reduction of body weight compared to the control group on Day 29” value in series [1] (10 mg/kg po once daily) and in series [1] (30 mg/kg po once daily) were 4.0% and 7.1%, respectively. Moreover, the entries for the “decrease in absolute body fat compared to the vehicle-treated control group” value in series [3] (setting [5]) and in series [3] (setting [6]) were 26.2 g and 11.1 g, respectively. For the same compound, the results for the “decrease of plasma leptin levels compared to the vehicle-treated control group” value in “Plasma leptin assay” (setting [5]) and in “Plasma leptin assay” (setting [6]) were 13.7% and 26.2%, respectively. Besides, the “decrease of plasma NEFA levels compared to the vehicle-treated control group” value in “Plasma NEFA assay” is recorded as 24.4%. For the same compound, in series [2], the “reduction of plasma glycerol levels” value was 38.9%. For the same compound, the “reduction of plasma triacylglycerol concentrations” value in series [2] is 52.1%.
